The source of these data is US20250127748A1, “METHODS FOR THE TREATMENT OF MIGRAINE AND RELATED HEADACHE SYMPTOMS USING TRICAPRYLIN” (priority 2021, published 2025).

Data set [1] has as its system trigeminal autonomic cephalgia (left hemi-cephalgia), person. As to the kind of experiment: case report: trigeminal autonomic cephalgia responsive to tricaprylin. Format: in vivo, human. The source says: A person presented with a history of waxing and waning left hemi-cephalgia over the course of 10 years. Their past medical history included bilateral loss of hearing (right worse than left) and past episodes of dizziness leading to a diagnosis of possible Menieres disease. They had hyperlipedemia controlled with a statin. They had some excess weight (BMI 30.8), was a vegetarian and was physically active.
The cephalgia was described as a dull achy non-throbbing pain that when present is continuous over the left side of the face and across the left scalp. The pain appeared to be centered around the eye and was described as if […] were being poked in the eye. The pain also involved the left cheek and left scalp. They could not identify any specific trigger to the pain but did note that it was accompanied by tenderness to touch of the scalp on the left side of the head, including sensitivity to hair brushing. When the pain was present they would be aware of it upon awakening in the morning and it would persist throughout the day.
They had no other headache types, and had not experienced episodes of nasal stuffiness, or pupillary changes. They noted occasional excess lacrimation of the left eye. At one point they were investigated for potential ‘sinus problems’ and no sinus condition was diagnosed. […] […] self-medicated with occasional paracetamol which provided modest relief.
The subject began a daily treatment regimen with Axona®, a medical food containing the active ingredient tricaprylin.
At the time of presentation the headache had recurred to an intensity of 4-6/10 and they were restarted on a course of Axona®, starting with 5 g tricaprylin per day, increasing over 2 weeks to 20 g a day.

Data set [2] has as its system participants with frequent migraine. In words: randomised, double-blind, placebo-controlled study of tricaprylin as AC-SD-03 for the reduction of migraine. The class given is in vivo, human. The source says:
This is a randomised, double-blind, placebo-controlled, parallel-group, multi-centre study of tricaprylin as AC-SD-03 compared with placebo for the reduction of migraine in participants with frequent migraine.
Following a screening period of up to 2 weeks, the study duration is 17 weeks including a 4-week baseline measurement period, after which randomisation occurs, a 12-week treatment period and a 1-week safety follow-up period.
The study will be completed in two parts. In Part 1, 54 participants will be randomised to receive tricaprylin as AC-SD-03, or placebo, in a 1:1 ratio. Once 54 participants are randomised, enrolment will be paused until the randomised participants have completed the study. Based on an unblinded analysis of the data from all evaluable patients from Part 1, a decision to proceed to Part 2 (enrolment of additional participants) will be taken. The decision to continue to Part 2 will be made by the Sponsor, based on a number of factors including the one-sided p-value for the analysis of the primary endpoint, ΔMDMth3, the safety and tolerability profile observed during Part 1, the observed between-subject variability, as well as trial conduct feasibility. The size of Part 2 will be determined by the between-subject variability observed in Part 1, and will be between 80 and 180 participants.
Investigational Medicinal Products: The formulation AC-SD-03 contains the active compound tricaprylin and excipients, 1:1.5. Thus 75 g AC-SD-03 contains 30 g tricaprylin and 45 g excipients (carrier, emulsifiers and flavouring). The placebo formulation, AC-SD-03P, contains 30 g safflower oil in place of the active compound tricaprylin and identical excipients to the active formulation.
Treatment Groups and Duration: At the Baseline Visit, all participants will receive a sentinel dose of 12.5 g AC-SD-03 (containing 5 g tricaprylin). […] Those that do tolerate the sentinel dose and meet other eligibility criteria, will enter the baseline measurement period of 4 weeks to determine migraine day participant eligibility for the study and to establish baseline data for comparison of endpoints during the study.
After the 4 weeks baseline measurement period, those who record 4-24 migraine days per month will be randomised to AC-SD-03 or placebo (AC-SD-03P) and will titrate from 12.5 g twice a day to 75 g twice a day, over the course of 2 weeks. Participants who have fewer than four or greater than 24 headache days per month in the baseline period will be discontinued from the study. The participant should not be told the number of migraine headache days on which eligibility is based to avoid biased reporting.
Once titration has completed, all participants will continue on the target dose they are on over an additional 10-week maintenance period.
The primary endpoint will be change from baseline in the number of migraine headache days during Month 3 (ΔMDMth3).
The secondary endpoints are: • Change from baseline in the number of migraine headache days during Month 1 (ΔMDMth1) and Month 2 (ΔMDMth2) of treatment and overall, from Months 1-3; • Change from baseline in duration of migraine of moderate to severe intensity during treatment months 1, 2 and 3; • Change from baseline in duration of migraine during treatment months 1, 2 and 3; • The proportion of participants with a 50% reduction from baseline in number of migraine headache days in treatment months 1, 2, and 3; • Change from baseline in monthly acute migraine medicine use during treatment months 1, 2 and 3; • Time to first usage of acute migraine medication; • Change from baseline Headache Impact Test (HIT-6) score at the end of Months 1, 2 and 3; • Incidence of adverse events; • Clinical safety laboratory tests; • Vital signs, ECGs, C-SSRS; […]

Data set [3] can be described thus: in-vitro digestion assays of emulsion. Particulars: intestinal and/or colon pH vs stomach pH. The class given is in vitro ADME. The source says:
In certain embodiments, the emulsion formed may be stable at stomach pH, e.g., at a pH of about 1 to about 3, about 1.2 to 2.9, etc. In certain embodiments, the emulsion formed may be stable at intestinal and/or colon pH, e.g., at a pH of about 5 to about 7, about 5.5 to about 6.9, etc. […] In accordance with certain aspects of the disclosure, preferential release of tricaprylin in the intestines and/or colon rather than the stomach may increase bioavailability of the tricaprylin given the location of lipid digestion enzymes in these areas.

The test system of a further data set is CH attacks. Particulars: Di Lorenzo et al 2018; cited from earlier work.

As for `CC(=O)Nc1ccc(O)cc1` [paracetamol], the relief of cephalgia result in data set [1] (occasional self-medication) is on record as “modest relief”.
In the case of `CCCCCCCC(=O)OCC(COC(=O)CCCCCCC)OC(=O)CCCCCCC` [tricaprylin], in data set [2] (12-week treatment, 40 treated), the “Discontinued treatment prior to completion, number of subjects” value worked out at 18; the “Discontinued treatment prior to completion, percent of subjects” value was “(45.0%)”; the “Primary reason for discontinuation: Adverse Event, number of subjects” value is 12; the “Primary reason for discontinuation: Adverse Event, percent of subjects” value is recorded as “(30.0%)”. Besides, the “Change from baseline in migraine headache days, Month 2” value in data set [2] (Month 2, vs placebo, one-sided p=0.066 vs target of p<0.2) is “clinically-relevant benefit”. Further, the “Change from baseline in migraine headache days, Month 3 (primary endpoint)” value in data set [2] (Month 3, EEITS, vs placebo, p=0.269 vs target of p<0.2) is on record as “positive, clinically-relevant trend”. For the same compound, in data set [3], the “release of encapsulated tricaprylin from emulsion” value is reported as “released from emulsion at intestinal and/or colon pH”.
For `CN(C)CCC=C1c2ccccc2CCc2ccccc21` [amitriptyline], the “effect on degree of discomfort” value in data set [1] (10 mg, earlier treatment of the same patient) was “reduced the degree of discomfort partially”. Moreover, the adverse effect entry in data set [1] (10 mg, earlier treatment of the same patient, discontinued) was “fatigue”.
On to `O=C(O)CCCO` [GHB], for which the “prevention of CH attacks” value in the data set with CH attacks is recorded as “has been shown to prevent CH attacks”.
